These results are taken from patent publication US11466032B2, “Cytotoxic agents” (FEMTOGENIX LIMITED, priority 2017, dated 2022).

One data set relates to ZR 75-1. As to the kind of experiment: MTT cytotoxicity assay, 72 hour incubation. Type of data set: cell-based. The conditions noted are these: Homo sapiens, 3 runs. How it is done:
(§1) The cytotoxicity of compounds 26, 34, 50,58 and 68 were evaluated in a variety of cell lines using the standard MTT assay for a 72 hour incubation period (Table 1).
(§2) Tumor cell lines were maintained in RPMI1640 medium supplemented with 10% heat-inactivated fetal bovine serum, 2 mM L-glutamine and 1 mM sodium pyruvate. 1800 cells per well were seeded in a volume of 180 μl in a 96-well flat bottom polystyrene plate. The cells were allowed to adhere overnight at 37° C. in a CO2 incubator. Ligands were initially formulated in DMSO, and stocks stored at −80° C. They were then further formulated at lox concentration in RPMI1640 medium. 20 ul of diluted samples were added into each treatment well. On each plate, blank wells with no cells, and untreated wells containing cells, were included. Plates were then cultured at 37° C. in a CO2 incubator for 72 hrs. Cytotoxicity was evaluated using a tetrazolium salt-based assay, the MT assay. After 72 hours, the supernatant was removed from each well and 200 μl of a sterile filtered 500 μg/ml MT solution in water added to each well. The plates were then incubated at 37° C. in a CO2 incubator for 4 hrs. The supernatant was then removed and the formazan crystals formed solubilized by adding 150 μl of DMSO to each well. The plate was then read on a plate reader at 540 nm, and percentage cell survival calculated as follows: ((mean absorbance treated wells at concentration x—mean absorbance blank wells)÷(mean absorbance untreated wells at concentration x—mean absorbance blank wells))×100. Data were plotted as concentration in nM vs. % cell survival in Microsoft Excel, and IC50 values (concentration where cell survival is reduced by a half) were determined from the graph.
Background: Formazan colour is commonly taken as a measure of viable cells.

In another data set the test system is MCF-7. The experiment in a line: MTT cytotoxicity assay, 72 hour incubation. The format is cell-based. Conditions: Homo sapiens, MCF7, 3 runs. How it is done: as §1, §2
For a further data set, the system named is SW48. The experiment in a line: MTT cytotoxicity assay, 72 hour incubation. Type of data set: cell-based. How it is done: as §1, §2
The next data set concerns SK-BR-3. The experiment in a line: MTT cytotoxicity assay, 72 hour incubation. The format is cell-based. The conditions noted are these: Homo sapiens, 3 runs. How it is done:
as §1, §2

The subject of the next data set is SW 620. The experiment in a line: MTT cytotoxicity assay, 72 hour incubation. The format is cell-based. The protocol:
as §1, §2

In a further data set the test system is LIM 1215. As to the kind of experiment: MTT cytotoxicity assay, 72 hour incubation. The format is cell-based. The protocol: as §1, §2
The subject of data set [1] is HexA and MS1 DNA fragments. As to the kind of experiment: DNA footprinting. The conditions noted are these: X is any base, Y is G or C, W is A or T; overnight incubation. Type of data set: binding. How it is done: The sequence selectivity of 26 and 34 was investigated using a modification of the previously established DNA footprinting assay^25. Following an overnight incubation of the ligand-DNA complexes, the mixture was mixed with strand separation buffer containing 10 mM EDTA, 10 mM NaOH, 0.1% bromophenol blue, 80% formamide and incubated at 100° C. for 3 min. The mixture was then immediately cooled on ice and run on an 8% denaturing gel.
Footprinting reactions were performed as previously described^[5] using the DNA fragments HexA and HexB, which together contain all 64 symmetrical hexanucleotide sequences^[6], and MS1 that contains all possible […] tetranucleotide sequences^[7]. The DNA fragments were obtained by cutting the parent plasmids with HindIII and SacI (for HexA and MS1) or EcoRI and PstI (for HexB), and were labelled at the 3′-end of the HindIII or EcoRI sites with [α-^32P]dATP using reverse transcriptase or exo-Klenow fragment. After gel purification, the radiolabelled DNA was dissolved in 10 mM Tris-HCl pH 7.5 containing 0.1 mM EDTA, at a concentration of about 10 c.p.s per μL as determined on a hand held Geiger counter. 1.5 μL of radiolabelled DNA was mixed with 1.5 μL ligand that had been freshly diluted in 10 mM Tris-HCl pH 7.5, containing 10 mM NaCl. […]

Data set [2] has as its system linear 32P-end-labelled TyrT DNA. The experiment in a line: DNA interstrand cross-linking assay (denaturing polyacrylamide gel). The format is biochemical. Conditions: overnight incubation at 37° C. The protocol:
The ability of 26 and 34 to cross-link DNA was determined using an assay involving linear double-stranded HexA. TyrT and MS1 DNA fragments (FIG. 5).
Following denaturation conditions (treatment with formamide and heating at 65° C. for 5 min) the DNA strands were completely separated (see control C2, FIG. 6). The presence of an interstrand cross-link holds the denatured strands in close proximity, and cross-linked adducts therefore run as double-stranded DNA on polyacrylamide gel. Talirine and 34 were tested at >10 different concentrations, and the assay was repeated twice. […] C1 and C2 represent controls where C1 is DNA without formic acid, and C2 is DNA without formic acid, but heated thereby forming single strands. Cross-links are clearly detectable at concentrations as low as 10 nM. Using the same assay, the PBD dimer Talirine was also shown to cross-link DNA down to a concentration of 10 nM (FIG. 7).
The preparation of the DNA fragments (FIG. 5) has been previously described^[4]. Briefly, the sequence which had been cloned into the BamHI site of pUC18 was obtained by cutting with HindIII and EcoRI. Radiolabelled DNA fragments were prepared by filling in the 3′-end of the HindIII site with [α-^32P]dATP using Klenow DNA polymerase (exo-).
The radiolabelled DNA fragment was separated from the remainder of the plasmid DNA on a 6% non-denaturing polyacrylamide gel. […]

Turning to `COc1ccc(C2=CCN3C(=O)c4cc(OC)c(OCc5cccc(COc6cc7c(cc6OC)C(=O)N6CC=C(c8ccc(OC)cc8)C[C@H]6C=N7)n5)cc4N=C[C@@H]3C2)cc1` [Compound 26, (6aS,6a′S)-3,3′-((Pyridine-2,6-diylbis(methylene))bis(oxy))bis(2-methoxy-8-(4-methoxyphenyl)-7,10-dihydrobenzo[e]pyrido[1,2-α][1,4]diazepin-12(6aH)-one)], the IC50 stood at 5 pM in the data set with ZR 75-1; 6 pM in the data set on MCF-7; 6 pM in the data set on SW48 (Homo sapiens, SW48, 3 runs); 6 pM in the data set with SK-BR-3; 5 pM in the data set with SW 620 (Homo sapiens, SW-620, 3 runs); 6 pM in the data set on LIM 1215 (LIM1215, 3 runs). The “general code of the footprints (preferred binding sites)” value in data set [1] is “XYWWYWYX”.

Turning to `COc1cc2c(cc1OCc1cccc(COc3cc4c(cc3OC)C(=O)N3CC=C(c5cncnc5)C[C@H]3C=N4)n1)N=C[C@@H]1CC(c3cncnc3)=CCN1C2=O` [Compound 50, (6aS,6a′S)-3,3′-((Pyridine-2,6-diylbis(methylene))bis(oxy))bis(2-methoxy-8-(pyrimidin-5-yl)-7,10-dihydrobenzo[e]pyrido[1,2-α][1,4]diazepin-12(6aH)-one)], the IC50 stood at 3.1 pM in the data set with SW48 (Homo sapiens, SW48, 3 runs); 1350 pM in the data set with SW 620 (Homo sapiens, SW-620, 3 runs); 3.7 pM with LIM 1215 (LIM1215, 3 runs).

Turning to `COc1cc2c(cc1OCc1cccc(COc3cc4c(cc3OC)C(=O)N3CC=C(c5ccsc5)C[C@H]3C=N4)n1)N=C[C@@H]1CC(c3ccsc3)=CCN1C2=O` [Compound 58, (6aS,6a′S)-3,3′-((Pyridine-2,6-diylbis(methylene))bis(oxy))bis(2-methoxy-8-(thiophen-3-yl)-7,10-dihydrobenzo[e]pyrido[1,2-α][1,4]diazepin-12(6aH)-one)], the IC50 in the data set on SW48 (Homo sapiens, SW48, 3 runs) is 8.6 pM; in the data set on SW 620 (Homo sapiens, SW-620, 3 runs), 92 pM; in the data set on LIM 1215 (LIM1215, 3 runs), 23 pM.

`COc1cc2c(cc1OCc1cccc(COc3cc4c(cc3OC)C(=O)N3CC=C(c5cccs5)C[C@H]3C=N4)n1)N=C[C@@H]1CC(c3cccs3)=CCN1C2=O` [Compound 68, (6aS,6a′S)-3,3′-((Pyridine-2,6-diylbis(methylene))bis(oxy))bis(2-methoxy-8-(thiophen-2-yl)-7,10-dihydrobenzo[e]pyrido[1,2-α][1,4]diazepin-12(6aH)-one)]: the concentration for half-maximal inhibition (IC50) was 12 pM in the data set with SW48 (Homo sapiens, SW48, 3 runs); 30 pM in the data set with SW 620 (Homo sapiens, SW-620, 3 runs); 13 pM in the data set on LIM 1215 (LIM1215, 3 runs).

With Talirine [reference compound], the IC50 in the data set on SW48 (3 runs) was 3 pM; with SW 620 (3 runs), 17 pM; in the data set with LIM 1215 (3 runs) it was 434 pM. The “lowest concentration at which DNA is cross-linked” value in data set [2] stood at 10 nM.

In general, IC50 refers to the concentration needed to halve the response being measured. High values mean weaker potency in that assay, low ones greater potency in that assay.
